Measurements reported in the CheMixHub viscosity set.

Assay: xn = mol fraction of the nth substance listed

CO + CCO
Settings	viscosity [mPa·s]
293.15 K, 101 kPa, x1 = 0.25	1.134
293.15 K, 101 kPa, x1 = 0.5	0.809
293.15 K, 101 kPa, x1 = 0.75	0.69
293.15 K, 101.3 kPa, x1 = 0.114	1.1
293.15 K, 101.3 kPa, x1 = 0.263	0.997
293.15 K, 101.3 kPa, x1 = 0.501	0.849
293.15 K, 101.3 kPa, x1 = 0.738	0.712
293.15 K, 101.3 kPa, x1 = 0.856	0.651
298.15 K, 101 kPa, x1 = 0.2045	0.94
298.15 K, 101 kPa, x1 = 0.25	1.032
298.15 K, 101 kPa, x1 = 0.3971	0.832
298.15 K, 101 kPa, x1 = 0.5	0.747
298.15 K, 101 kPa, x1 = 0.5962	0.729
298.15 K, 101 kPa, x1 = 0.75	0.639
298.15 K, 101 kPa, x1 = 0.7975	0.634
298.15 K, 101.33 kPa, x1 = 0.0889	1.045
298.15 K, 101.33 kPa, x1 = 0.146	1.008
298.15 K, 101.33 kPa, x1 = 0.2385	0.95
298.15 K, 101.33 kPa, x1 = 0.3311	0.896
298.15 K, 101.33 kPa, x1 = 0.4041	0.855
298.15 K, 101.33 kPa, x1 = 0.5234	0.791
298.15 K, 101.33 kPa, x1 = 0.6076	0.747
298.15 K, 101.33 kPa, x1 = 0.7136	0.694
298.15 K, 101.33 kPa, x1 = 0.8128	0.643
298.15 K, 101.33 kPa, x1 = 0.9156	0.594
303.15 K, 101 kPa, x1 = 0.25	0.939
303.15 K, 101 kPa, x1 = 0.5	0.69
303.15 K, 101 kPa, x1 = 0.75	0.594
308.15 K, 101 kPa, x1 = 0.2045	0.791
308.15 K, 101 kPa, x1 = 0.25	0.858
308.15 K, 101 kPa, x1 = 0.3971	0.706
308.15 K, 101 kPa, x1 = 0.5	0.638
308.15 K, 101 kPa, x1 = 0.5962	0.625
308.15 K, 101 kPa, x1 = 0.75	0.552
308.15 K, 101 kPa, x1 = 0.7975	0.548
313.15 K, 101 kPa, x1 = 0.25	0.784
313.15 K, 101 kPa, x1 = 0.5	0.593
313.15 K, 101 kPa, x1 = 0.75	0.515
313.15 K, 101.3 kPa, x1 = 0.114	0.77
313.15 K, 101.3 kPa, x1 = 0.263	0.709
313.15 K, 101.3 kPa, x1 = 0.501	0.615
313.15 K, 101.3 kPa, x1 = 0.738	0.531
313.15 K, 101.3 kPa, x1 = 0.856	0.491
318.15 K, 101 kPa, x1 = 0.2045	0.667
318.15 K, 101 kPa, x1 = 0.25	0.718
318.15 K, 101 kPa, x1 = 0.3971	0.599
318.15 K, 101 kPa, x1 = 0.5	0.551
318.15 K, 101 kPa, x1 = 0.5962	0.531
318.15 K, 101 kPa, x1 = 0.75	0.482
318.15 K, 101 kPa, x1 = 0.7975	0.474
323.15 K, 101 kPa, x1 = 0.25	0.661
323.15 K, 101 kPa, x1 = 0.5	0.513
323.15 K, 101 kPa, x1 = 0.75	0.452

COC(=O)OC + CCO
101.3 kPa
Settings	viscosity [mPa·s]
293.15 K, x1 = 0.0498	1.07
293.15 K, x1 = 0.0978	0.974
293.15 K, x1 = 0.176	0.853
293.15 K, x1 = 0.2928	0.74
293.15 K, x1 = 0.4053	0.675
293.15 K, x1 = 0.4981	0.646
293.15 K, x1 = 0.5982	0.625
293.15 K, x1 = 0.6962	0.613
293.15 K, x1 = 0.8024	0.609
293.15 K, x1 = 0.8894	0.607
293.15 K, x1 = 0.9516	0.618
298.15 K, x1 = 0.0598	0.966
298.15 K, x1 = 0.095	0.897
298.15 K, x1 = 0.1692	0.786
298.15 K, x1 = 0.2725	0.685
298.15 K, x1 = 0.3854	0.625
298.15 K, x1 = 0.4778	0.594
298.15 K, x1 = 0.5686	0.573
298.15 K, x1 = 0.6777	0.561
298.15 K, x1 = 0.7915	0.555
298.15 K, x1 = 0.8775	0.556
298.15 K, x1 = 0.9366	0.565
303.15 K, x1 = 0.0673	0.832
303.15 K, x1 = 0.1142	0.752
303.15 K, x1 = 0.2249	0.627
303.15 K, x1 = 0.2894	0.588
303.15 K, x1 = 0.3906	0.541
303.15 K, x1 = 0.4848	0.521
303.15 K, x1 = 0.5996	0.512
303.15 K, x1 = 0.6931	0.513
303.15 K, x1 = 0.8038	0.512
303.15 K, x1 = 0.9072	0.52
303.15 K, x1 = 0.9462	0.527
313.15 K, x1 = 0.0504	0.731
313.15 K, x1 = 0.0934	0.662
313.15 K, x1 = 0.2082	0.535
313.15 K, x1 = 0.3087	0.472
313.15 K, x1 = 0.393	0.45
313.15 K, x1 = 0.5026	0.44
313.15 K, x1 = 0.6011	0.438
313.15 K, x1 = 0.7052	0.44
313.15 K, x1 = 0.7968	0.445
313.15 K, x1 = 0.9075	0.463
313.15 K, x1 = 0.9507	0.475

ClC(Cl)C(Cl)Cl + CCO
viscosity [mPa·s], 101.32 kPa
Settings	x2 = 0.167	x2 = 0.3109	x2 = 0.4362	x2 = 0.5461	x2 = 0.6435	x2 = 0.7303	x2 = 0.8081	x2 = 0.8783	x2 = 0.942
303.15 K	1.369	1.324	1.257	1.21	1.166	1.12	1.095	1.047	1.026
313.15 K	1.24	1.16	1.107	1.049	1.007	0.965	0.934	0.903	0.868
323.15 K	1.121	1.068	0.961	0.91	0.869	0.819	0.795	0.787	0.732
